# pIC50: −log10 of the molar value.
# Target: Galactokinase (Homo sapiens, UniProt P51570)
# Experiment: Inhibition of recombinant human GALK1 using galactose as substrate incubated for 1 hrs in the presence of ATP by Kinase-Glo reagent based luminescence assay
# Galactokinase, sequence (P51570 whole entry): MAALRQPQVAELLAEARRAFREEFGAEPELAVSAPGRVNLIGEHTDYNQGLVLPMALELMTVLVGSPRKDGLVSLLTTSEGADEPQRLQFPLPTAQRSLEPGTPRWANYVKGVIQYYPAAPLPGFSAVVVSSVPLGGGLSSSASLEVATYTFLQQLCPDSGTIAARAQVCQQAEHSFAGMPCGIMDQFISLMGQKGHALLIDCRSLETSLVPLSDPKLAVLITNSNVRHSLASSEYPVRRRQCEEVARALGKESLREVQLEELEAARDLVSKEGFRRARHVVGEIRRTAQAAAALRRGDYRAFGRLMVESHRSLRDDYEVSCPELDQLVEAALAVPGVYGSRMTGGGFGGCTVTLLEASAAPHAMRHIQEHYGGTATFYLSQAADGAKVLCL
row,pIC50,Compound
1,5.50,CC1=C(C(=O)Nc2cc(C(=O)O)ccn2)C(c2ccccc2Cl)N=C(Nc2nc3cc(F)ccc3o2)N1 (stereo not drawn)
2,5.20,CC1=C(C(=O)NCc2ccccc2O)C(c2ccccc2Cl)N=C(Nc2nc3ccccc3o2)N1 (stereo not drawn)
3,5.80,CC1=C(C(=O)NCc2cncn2C)C(c2ccccc2Cl)N=C(Nc2nc3ccccc3o2)N1 (stereo not drawn)

# Source: BindingDB's records for PubMed 34491744 (National Center For Advancing Translational Sciences, 2021)
